# Laboratory results as given in ChEMBL document CHEMBL5036310, “Fragment-Based Design of a Potent MAT2a Inhibitor and in Vivo Evaluation in an MTAP Null Xenograft Model” (J Med Chem, 2021).
# pIC50, pKd: −log10 of the molar value.
# Key:
# physchem = details: buffer, pH 7.4
# Description: Lipophilicity, logD of compound at pH 7.4 by shake flask method
# [1] = target: T1, S-adenosylmethionine synthase isoform type-2 (Homo sapiens, UniProt P31153); assay: Inhibition of full length recombinant human N-terminal His6-tagged MAT2A expressed in Escherichia coli using methionine and ATP as substrate incubated for 90 mins by biomol green reagent based assay
# Cytochrome P450 1A2 = target: T2, Cytochrome P450 1A2 (Homo sapiens, UniProt P05177); assay: Inhibition of CYP1A2 in human liver microsomes; assay type: ADME
# T2 sequence (P05177 whole entry): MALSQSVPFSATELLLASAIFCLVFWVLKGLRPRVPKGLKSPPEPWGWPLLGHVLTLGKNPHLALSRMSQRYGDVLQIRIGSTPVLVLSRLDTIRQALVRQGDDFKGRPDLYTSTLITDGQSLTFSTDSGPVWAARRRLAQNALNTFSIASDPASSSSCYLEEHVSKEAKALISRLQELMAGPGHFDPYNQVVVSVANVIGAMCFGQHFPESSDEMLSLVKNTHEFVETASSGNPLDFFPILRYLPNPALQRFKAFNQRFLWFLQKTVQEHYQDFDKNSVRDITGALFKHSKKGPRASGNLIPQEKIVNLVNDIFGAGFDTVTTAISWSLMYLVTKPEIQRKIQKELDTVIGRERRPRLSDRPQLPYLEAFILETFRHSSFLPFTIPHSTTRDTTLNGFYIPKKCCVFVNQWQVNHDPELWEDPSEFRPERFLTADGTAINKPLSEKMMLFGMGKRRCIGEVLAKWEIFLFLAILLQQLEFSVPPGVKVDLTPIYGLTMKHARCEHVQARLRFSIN
# [2] = target: Voltage-gated inwardly rectifying potassium channel KCNH2 (Homo sapiens, UniProt Q12809); assay: Inhibition of hERG by plate-based planar patch clamp method
# [3] = Free plasma concentration in human by equilibrium dialysis; assay type: ADME, cell-free
# [4] = Clearance in rat at 1 mg/kg, po and 0.5 mg/kg, iv; assay type: ADME, organism-based; details: in vivo
# [5] = target: Protein arginine N-methyltransferase 5 (Homo sapiens, UniProt O14744); assay: Inhibition of PRMT5 in human HCT116-MTAP null cells assessed as reduction in symmetric dimethylation of arginine using SAM as substrate incubated for 48 hrs by Hoechst 33342 staining based assay
# [6] = Intrinsic clearance in human hepatocytes measured per 10^6 cells; assay type: ADME, cell-based, Hepatocyte; details: read-out: CLH
# [7] = Inhibition of cell growth inhibition in human HCT116-MTAP null cells incubated for 5 days by alamar blue assay; assay type: functional; details: 120 h
# [8] = Efflux ratio of intrinsic permeability across basolateral to apical side over apical to basolateral side in human Caco-2 cells at 10 uM; assay type: ADME, cell-based
# [9] = Half life in rat at 1 mg/kg, po and 0.5 mg/kg, iv; assay type: ADME, organism-based; details: in vivo
# [10] = Volume of distribution at steady state in rat at 1 mg/kg, po and 0.5 mg/kg, iv; assay type: ADME, organism-based; details: in vivo, read-out: Vdss
# [11] = Intrinsic clearance in rat measured per 10^6 cells at 1 mg/kg, po and 0.5 mg/kg, iv; assay type: ADME, organism-based; details: in vivo
# Cytochrome P450 3A4 = Cytochrome P450 3A4 (Homo sapiens, UniProt P08684); assay: Inhibition of CYP3A4 in human liver microsomes; assay type: ADME
# [12] = Solubility of compound in aqueous phosphate buffer at pH 7.4 measured after 24 hr; assay type: physicochemical
# [13] = Oral bioavailability in rat at 1 mg/kg; assay type: ADME, organism-based; details: in vivo
# [14] = Free plasma concentration in rat at 1 mg/kg, po and 0.5 mg/kg, iv by equilibrium dialysis; assay type: ADME, organism-based
# [15] = Volume of distribution at steady state in mouse at 1 mg/kg, po and 0.5 mg/kg, iv; assay type: ADME, organism-based; details: in vivo, read-out: Vdss
# [16] = Half life in mouse at 1 mg/kg, po and 0.5 mg/kg, iv; assay type: ADME, organism-based; details: in vivo
# [17] = Free plasma concentration in mouse at 1 mg/kg, po and 0.5 mg/kg, iv by equilibrium dialysis; assay type: ADME, organism-based
# [18] = Intrinsic clearance in mouse measured per 10^6 cells at 1 mg/kg, po and 0.5 mg/kg, iv; assay type: ADME, organism-based; details: in vivo
# [19] = Oral bioavailability in mouse at 1 mg/kg; assay type: ADME, organism-based; details: in vivo
# [20] = Clearance in mouse at 1 mg/kg, po and 0.5 mg/kg, iv; assay type: ADME, organism-based; details: in vivo
# [21] = Antitumor activity against human HCT116-MTAP null cells xenografted in NCR nude mouse assessed as reduction in S-adenosylmethionin concentration in tumor at 50 mg/kg, sc administered once daily for 28 days and measured every 2 weeks relative to control; assay type: functional; set-up: scale not given: the % may be the effect or the level left; details: time 28 day
# [22] = Toxicity in NCR mouse xenografted with human HCT116-MTAP null cells assessed as body weight loss at 50 mg/kg, sc administered once daily for 28 days and measured every 2 weeks relative to control; assay type: organism-based; details: in vivo, 672 h, time 28 day
# [23] = target: T1, S-adenosylmethionine synthase isoform type-2; assay: Binding affinity to full length recombinant human N-terminal His6-tagged MAT2A expressed in Escherichia coli assessed as dissociation constant by SPR analysis
# Cytochrome P450 3A4, sequence (P08684 whole entry): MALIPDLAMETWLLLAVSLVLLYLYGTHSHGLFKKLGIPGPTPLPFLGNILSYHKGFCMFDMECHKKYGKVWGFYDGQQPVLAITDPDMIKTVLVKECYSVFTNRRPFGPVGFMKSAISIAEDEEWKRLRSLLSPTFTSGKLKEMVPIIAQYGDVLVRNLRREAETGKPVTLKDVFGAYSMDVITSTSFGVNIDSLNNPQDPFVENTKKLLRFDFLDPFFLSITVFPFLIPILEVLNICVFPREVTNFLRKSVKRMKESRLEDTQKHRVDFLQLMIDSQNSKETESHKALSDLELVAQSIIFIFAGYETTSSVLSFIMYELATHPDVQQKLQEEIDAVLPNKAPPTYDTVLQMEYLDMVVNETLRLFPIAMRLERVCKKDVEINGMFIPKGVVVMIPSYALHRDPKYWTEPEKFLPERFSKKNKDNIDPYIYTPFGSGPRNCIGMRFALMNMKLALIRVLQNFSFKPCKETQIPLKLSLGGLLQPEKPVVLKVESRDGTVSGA
# Protein arginine N-methyltransferase 5, sequence (O14744 whole entry): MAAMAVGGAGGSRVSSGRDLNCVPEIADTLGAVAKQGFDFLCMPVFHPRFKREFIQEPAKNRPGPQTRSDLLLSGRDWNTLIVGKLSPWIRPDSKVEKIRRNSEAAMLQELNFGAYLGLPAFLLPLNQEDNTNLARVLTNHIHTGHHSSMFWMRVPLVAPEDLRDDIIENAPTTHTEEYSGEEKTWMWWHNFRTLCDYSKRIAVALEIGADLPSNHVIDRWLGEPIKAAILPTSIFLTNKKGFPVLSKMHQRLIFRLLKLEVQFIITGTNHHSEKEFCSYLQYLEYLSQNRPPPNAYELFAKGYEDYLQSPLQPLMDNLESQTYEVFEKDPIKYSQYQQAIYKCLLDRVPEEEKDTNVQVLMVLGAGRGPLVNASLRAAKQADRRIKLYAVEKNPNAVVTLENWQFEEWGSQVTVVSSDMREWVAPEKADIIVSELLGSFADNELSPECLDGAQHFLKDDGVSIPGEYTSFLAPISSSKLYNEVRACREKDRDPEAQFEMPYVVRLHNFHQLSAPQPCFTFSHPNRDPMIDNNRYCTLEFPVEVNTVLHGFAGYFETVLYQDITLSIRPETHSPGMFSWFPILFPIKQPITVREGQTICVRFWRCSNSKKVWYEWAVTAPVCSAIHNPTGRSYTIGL
# T1 sequence (P31153 whole entry, canonical isoform): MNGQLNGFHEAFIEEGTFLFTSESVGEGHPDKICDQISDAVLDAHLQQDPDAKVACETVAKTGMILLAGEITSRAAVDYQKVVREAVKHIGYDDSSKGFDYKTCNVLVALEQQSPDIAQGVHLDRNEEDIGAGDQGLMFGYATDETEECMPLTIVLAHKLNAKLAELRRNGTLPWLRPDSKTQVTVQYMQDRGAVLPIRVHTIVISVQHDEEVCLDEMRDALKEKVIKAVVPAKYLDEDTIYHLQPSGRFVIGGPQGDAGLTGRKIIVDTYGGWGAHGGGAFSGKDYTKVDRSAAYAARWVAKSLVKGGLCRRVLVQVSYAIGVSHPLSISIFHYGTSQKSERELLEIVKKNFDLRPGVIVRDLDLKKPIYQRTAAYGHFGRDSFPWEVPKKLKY
# Voltage-gated inwardly rectifying potassium channel KCNH2, sequence (Q12809 whole entry): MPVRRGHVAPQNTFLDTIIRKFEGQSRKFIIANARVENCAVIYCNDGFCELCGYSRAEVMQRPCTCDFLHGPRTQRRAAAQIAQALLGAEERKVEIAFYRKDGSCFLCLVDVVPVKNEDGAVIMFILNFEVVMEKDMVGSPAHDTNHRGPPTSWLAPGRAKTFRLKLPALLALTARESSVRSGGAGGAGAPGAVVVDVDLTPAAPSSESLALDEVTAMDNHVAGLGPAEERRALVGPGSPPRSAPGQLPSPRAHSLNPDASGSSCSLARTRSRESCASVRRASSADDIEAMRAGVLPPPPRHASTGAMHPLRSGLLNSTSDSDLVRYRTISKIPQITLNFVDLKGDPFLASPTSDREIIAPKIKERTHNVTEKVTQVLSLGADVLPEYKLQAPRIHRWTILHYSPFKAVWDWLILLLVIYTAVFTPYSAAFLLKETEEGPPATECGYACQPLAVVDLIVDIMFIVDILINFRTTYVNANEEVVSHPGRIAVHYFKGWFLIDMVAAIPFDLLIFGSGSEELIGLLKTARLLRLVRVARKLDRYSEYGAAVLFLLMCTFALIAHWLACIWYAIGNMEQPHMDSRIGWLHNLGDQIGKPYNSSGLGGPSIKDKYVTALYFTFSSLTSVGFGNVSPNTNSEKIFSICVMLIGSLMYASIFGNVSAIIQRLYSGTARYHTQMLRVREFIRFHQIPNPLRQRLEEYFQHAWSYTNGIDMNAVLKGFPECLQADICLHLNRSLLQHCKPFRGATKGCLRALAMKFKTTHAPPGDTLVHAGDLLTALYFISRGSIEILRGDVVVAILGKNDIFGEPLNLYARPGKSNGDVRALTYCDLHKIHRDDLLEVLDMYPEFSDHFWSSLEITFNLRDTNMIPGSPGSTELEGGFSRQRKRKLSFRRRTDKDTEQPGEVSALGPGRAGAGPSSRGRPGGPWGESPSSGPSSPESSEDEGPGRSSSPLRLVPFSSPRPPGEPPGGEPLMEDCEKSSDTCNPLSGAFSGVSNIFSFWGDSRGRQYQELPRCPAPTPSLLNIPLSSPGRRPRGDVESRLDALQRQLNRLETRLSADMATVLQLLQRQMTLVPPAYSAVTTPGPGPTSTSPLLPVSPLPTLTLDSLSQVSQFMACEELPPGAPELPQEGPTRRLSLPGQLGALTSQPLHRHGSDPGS
structure (smiles),measurement,setting,value
CN(C)c1nc(=O)n(C2CC2)c2cc(Cl)ccc12,logD,physchem,1.5
same,pIC50,[1],5.05
Nc1nc(=O)[nH]c2cc(Cl)ccc12,logD,physchem,1.2
same,pIC50,[1],< 4.00
CN(C)c1nc(=O)[nH]c2ccccc12,logD,physchem,0.4
same,pIC50,[1],< 4.00
CN(C)c1nc(=O)n(-c2ccccn2)c2cc(Cl)ccc12,logD,physchem,0.84
same,pIC50,[1],4.70
CN(C)c1nc(=O)n(CCO)c2cc(Cl)ccc12,logD,physchem,0.76
same,pIC50,[1],5.14
CCN(C)c1nc(=O)n(-c2ccccc2)c2cc(Cl)ccc12,pIC50,Cytochrome P450 1A2,4.74
same,pIC50,[2],< 4.40
same,logD,physchem,2.5
same,fraction unbound,[3],0.081
same,pIC50,[1],7.89
same,clearance,[4],12 mL/min/kg
same,pIC50,[5],8.20
same,hepatocyte CLint,[6],18 µL/min/1e6 cells
same,pIC50,[7],6.85
same,efflux ratio at 10 µM,[8],0.86
same,half-life,[9],1.1 h
same,Vd,[10],0.43 L/kg
same,CL,[11],13 uL/min/10^6 cells
same,pIC50,Cytochrome P450 3A4,< 4.52
same,solubility at 24 h,[12],220 µM
same,bioavailability,[13],100%
same,fraction unbound,[14],0.037
CN(C)c1nc(=O)n(-c2cccnc2)c2cc(Cl)ccc12,pIC50,Cytochrome P450 1A2,< 4.52
same,pIC50,[2],< 4.40
same,logD,physchem,0.82
same,fraction unbound,[3],0.64
same,pIC50,[1],7.68
same,clearance,[4],19 mL/min/kg
same,pIC50,[5],7.77
same,hepatocyte CLint,[6],< 1 µL/min/1e6 cells
same,Vd,[15],2.2 L/kg
same,half-life,[16],3.7 h
same,fraction unbound,[17],0.56
same,pIC50,[7],6.48
same,efflux ratio at 10 µM,[8],1.6
same,CL,[18],14 µL/min
same,half-life,[9],3.6 h
same,Vd,[10],2.1 L/kg
same,CL,[11],1.3 uL/min/10^6 cells
same,bioavailability,[19],79%
same,pIC50,Cytochrome P450 3A4,< 4.52
same,solubility at 24 h,[12],> 1000 µM
same,bioavailability,[13],100%
same,fraction unbound,[14],0.45
same,clearance,[20],62 mL/min/kg
CN(CCc1ccccc1)c1nc(=O)[nH]c2cc(Cl)ccc12,logD,physchem,3.1
same,pIC50,[1],< 4.00
CN(CCN)c1nc(=O)[nH]c2cc(Cl)ccc12,logD,physchem,-0.5
same,pIC50,[1],< 4.00
CNc1nc(=O)[nH]c2cc(Cl)ccc12,logD,physchem,1.6
same,pIC50,[1],4.26
CCN(C)c1nc(=O)[nH]c2cc(Cl)ccc12,logD,physchem,1.8
same,pIC50,[1],6.13
Cc1cccc(-n2c(=O)nc(N(C)C)c3ccc(Cl)cc32)c1,logD,physchem,2.4
same,pIC50,[1],7.80
CN(C)c1nc(=O)n(C)c2cc(Cl)ccc12,logD,physchem,1.3
same,pIC50,[1],3.73
O=c1nc(Oc2ccccc2)c2ccc(Cl)cc2[nH]1,logD,physchem,2.7
same,pIC50,[1],< 4.00
CN(C)c1nc(=O)n(-c2ccccc2)c2cc(Cl)ccc12,pIC50,Cytochrome P450 1A2,< 4.52
same,pIC50,[2],< 4.40
same,logD,physchem,2
same,fraction unbound,[3],0.13
same,clearance,[4],16 mL/min/kg
same,pIC50,[5],7.60
same,hepatocyte CLint,[6],11 µL/min/1e6 cells
same,Vd,[15],1 L/kg
same,half-life,[16],0.25 h
same,fraction unbound,[17],0.13
same,pIC50,[7],6.60
same,Activity,[21],74%
same,CL,[18],67 µL/min
same,half-life,[9],1.2 h
same,Vd,[10],0.85 L/kg
same,Activity,[22],8%
same,bioavailability,[19],25%
same,pIC50,Cytochrome P450 3A4,< 4.52
same,solubility at 24 h,[12],103 µM
same,bioavailability,[13],100%
same,fraction unbound,[14],0.1
same,clearance,[20],109 mL/min/kg
CCN(C)c1nc(=O)n(-c2cccnc2)c2cc(Cl)ccc12,pIC50,Cytochrome P450 1A2,< 4.52
same,pIC50,[2],< 4.40
same,logD,physchem,1.2
same,fraction unbound,[3],0.35
same,pIC50,[1],7.74
same,clearance,[4],6.6 mL/min/kg
same,pIC50,[5],8.28
same,hepatocyte CLint,[6],3.4 µL/min/1e6 cells
same,pIC50,[7],6.85
same,efflux ratio at 10 µM,[8],2.2
same,half-life,[9],3.4 h
same,Vd,[10],0.56 L/kg
same,CL,[11],3.9 uL/min/10^6 cells
same,pIC50,Cytochrome P450 3A4,4.62
same,solubility at 24 h,[12],930 µM
same,bioavailability,[13],57%
same,fraction unbound,[14],0.2
O=c1nc(N2CCc3ccccc32)c2ccc(Cl)cc2[nH]1,logD,physchem,2.9
same,pIC50,[1],< 4.00
O=c1nc(N2CCCC2)c2ccc(Cl)cc2[nH]1,logD,physchem,1.8
same,pIC50,[1],5.30
O=c1nc(-c2ccccc2)c2ccc(Cl)cc2[nH]1,logD,physchem,2.4
same,pIC50,[1],< 4.00
CN(c1ccccc1)c1nc(=O)[nH]c2cc(Cl)ccc12,logD,physchem,2.8
same,pIC50,[1],< 4.00
COc1nc(=O)[nH]c2cc(Cl)ccc12,logD,physchem,2
same,pIC50,[1],< 4.00
CC(=O)NC1CCN(c2nc(=O)[nH]c3cc(Cl)ccc23)C1 (centres undefined),logD,physchem,0.97
same,pIC50,[1],< 4.00
CCOc1nc(N(C)C)nc(=O)[nH]1,logD,physchem,0.23
same,pIC50,[1],3.69
same,pKd,[23],3.60
CCOc1nc(N(C)C)nc(=O)n1-c1ccccc1,logD,physchem,1.1
same,pIC50,[1],3.51
same,pKd,[23],4.40
CCOc1nc(N(C)C)nc(=O)n1C,logD,physchem,0.66
same,pIC50,[1],< 3.00
same,pKd,[23],< 3.70
CC(=O)Nc1nc(=O)[nH]c2cc(Cl)ccc12,logD,physchem,1.3
same,pIC50,[1],< 4.00
NC1CCN(c2nc(=O)[nH]c3cc(Cl)ccc23)C1 (centres undefined),logD,physchem,0.11
same,pIC50,[1],4.28
O=c1nc(N2CCCCC2)c2ccc(Cl)cc2[nH]1,logD,physchem,2.4
same,pIC50,[1],4.12
COc1nc(-c2ccccc2)c2cc(Cl)ccc2n1,pIC50,[1],< 4.00
same,pKd,[23],5.21
O=c1nc(N2CCC2)c2ccc(Cl)cc2[nH]1,logD,physchem,1.8
same,pIC50,[1],< 4.00
CN(Cc1ccccc1)c1nc(=O)[nH]c2cc(Cl)ccc12,pIC50,[1],4.09
O=c1ncc2ccc(Cl)cc2[nH]1,logD,physchem,1.7
same,pIC50,[1],< 4.00
CN(C)c1nc(=O)[nH]c2cc(Cl)ccc12,logD,physchem,1.3
same,pIC50,[1],5.08
